# From publication PMC7551886, “Antitumour Effects of Astaxanthin and Adonixanthin on Glioblastoma” (Marine Drugs, 2020)
# Legend:
# [1] = test system: fibronectin; assay: Immunoblotting, fibronectin expression in GL261; type: cell-based, mouse; conditions: GL261, 10 µM, 48 h
# Experimental: GL261 cell was seeded at 2.5 × 10^4 cells per well in 24-well plates with culture medium supplemented with 10% FBS. After 24 h of incubation, the medium was changed to DMEM containing 10% FBS and 0.1%DMSO PBS, 300 μM temozolomide, 10 μM astaxanthin, or 10 μM adonixanthin was added for 6 and 48 h. Cells were lysed in a special buffer (RIPA buffer R0278; Sigma-Aldrich, St. Louis, MO, USA) with a protease inhibitor cocktail (Sigma-Aldrich), phosphatase inhibitor cocktails 2 and 3 (Sigma-Aldrich), and sample buffer (Wako, Osaka, Japan). The protein concentration was determined by comparison with a known concentration of bovine serum albumin using the BCA Protein Assay Kit (Thermo Fisher Scientific). The amount of total protein was 2 μg. […] The band intensity was […] using an Immuno Star LD (Wako). Band intensity was measured using an LAS-4000 UV mini Luminescent Image Analyzer (Fujifilm, Tokyo Japan) and Multi Gauge Version 3.0 (Fujifilm). The phosphorylation of ERK1/2, Akt, and p38 MAPK was measured by normalizing against total ERK1/2, total Akt, and total p38 MAPK. […]
# [2] = known; no reference given; cited from earlier work
# [3] = test system: hippocampal inflammation; parameters: method as in PMID 28017669; conditions: diabetic mice, oral 25 mg/kg ref 45; cited from earlier work
Structure (SMILES),expression of fibronectin [1],dose that does not show adverse effects even with long-term administration [2],hippocampal inflammation [3]
"CC1=C(/C=C/C(C)=C/C=C/C(C)=C/C=C/C=C(C)/C=C/C=C(C)/C=C/C2=C(C)C(=O)[C@@H](O)CC2(C)C)C(C)(C)C[C@H](O)C1 [Adonixanthin, adonixanthin]",decreased,,
"CC1=C(/C=C/C(C)=C/C=C/C(C)=C/C=C/C=C(C)/C=C/C=C(C)/C=C/C2=C(C)C(=O)[C@@H](O)CC2(C)C)C(C)(C)C[C@H](O)C1=O [Astaxanthin, astaxanthin]",,50 mg/kg,inhibited hippocampal inflammation
